Results on 18 molecules are retold here after US20240109865A1, “INDAZOLE COMPOUNDS AS KINASE INHIBITORS” (TYRA BIOSCIENCES, INC., priority 2020, published 2024).

A word on the Kd: it is the equilibrium constant for the complex coming apart.

Structures are written as SMILES.

What all share (experiment): Kinase assay, binding constants (Kd), kinase-tagged T7 phage, qPCR
Background: Quantitative PCR measures a nucleic acid by following its amplification.

Experiment [1] has as its target FGFR1 (Homo sapiens (Human), UniProt P11362). The method in brief: (§1)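 Using T7 phage lysates from BL21-derived E. coli, compounds at 0.9% final DMSO competed for kinase binding to ligand-bearing magnetic beads. After elution, qPCR measured remaining kinase, and Kds were fitted by non-linear least squares with the Hill slope fixed at −1.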
Experiment [2] concerns the target FGFR3 (Homo sapiens (Human), UniProt P22607). The method in brief:
as §1

The target in experiment [3] is FGFR3 (V555M) (Homo sapiens (Human), UniProt P22607, V555M). Particulars: V555M mutant. A digest of the protocol: as §1
Experiment [4] concerns the target FGFR4 (Homo sapiens (Human), UniProt P22455). The method in brief:
as §1

The target in experiment [5] is FGFR2 (Homo sapiens (Human), UniProt P21802). The method in brief:
as §1

FGFR4, sequence (P22455 22-802): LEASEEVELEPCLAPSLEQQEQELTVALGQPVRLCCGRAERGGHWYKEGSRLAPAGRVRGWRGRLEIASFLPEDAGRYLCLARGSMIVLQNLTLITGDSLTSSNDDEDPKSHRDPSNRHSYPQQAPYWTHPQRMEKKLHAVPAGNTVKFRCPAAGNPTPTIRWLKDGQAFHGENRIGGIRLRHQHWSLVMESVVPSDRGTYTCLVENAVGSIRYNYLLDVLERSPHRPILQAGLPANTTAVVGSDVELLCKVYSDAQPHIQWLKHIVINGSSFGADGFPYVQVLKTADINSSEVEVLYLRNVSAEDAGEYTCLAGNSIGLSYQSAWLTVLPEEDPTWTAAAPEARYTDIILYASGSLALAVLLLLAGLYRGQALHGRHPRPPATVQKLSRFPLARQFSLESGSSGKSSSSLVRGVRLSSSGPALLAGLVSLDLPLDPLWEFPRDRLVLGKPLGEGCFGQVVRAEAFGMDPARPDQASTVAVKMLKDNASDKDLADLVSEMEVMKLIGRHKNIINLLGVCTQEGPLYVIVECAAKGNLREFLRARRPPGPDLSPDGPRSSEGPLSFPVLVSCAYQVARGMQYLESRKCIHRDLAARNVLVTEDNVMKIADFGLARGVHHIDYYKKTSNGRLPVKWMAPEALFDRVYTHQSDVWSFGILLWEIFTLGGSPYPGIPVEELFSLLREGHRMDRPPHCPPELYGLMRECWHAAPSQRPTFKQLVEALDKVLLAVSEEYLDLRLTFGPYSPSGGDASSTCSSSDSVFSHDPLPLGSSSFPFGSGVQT
FGFR2, sequence (P21802 22-821): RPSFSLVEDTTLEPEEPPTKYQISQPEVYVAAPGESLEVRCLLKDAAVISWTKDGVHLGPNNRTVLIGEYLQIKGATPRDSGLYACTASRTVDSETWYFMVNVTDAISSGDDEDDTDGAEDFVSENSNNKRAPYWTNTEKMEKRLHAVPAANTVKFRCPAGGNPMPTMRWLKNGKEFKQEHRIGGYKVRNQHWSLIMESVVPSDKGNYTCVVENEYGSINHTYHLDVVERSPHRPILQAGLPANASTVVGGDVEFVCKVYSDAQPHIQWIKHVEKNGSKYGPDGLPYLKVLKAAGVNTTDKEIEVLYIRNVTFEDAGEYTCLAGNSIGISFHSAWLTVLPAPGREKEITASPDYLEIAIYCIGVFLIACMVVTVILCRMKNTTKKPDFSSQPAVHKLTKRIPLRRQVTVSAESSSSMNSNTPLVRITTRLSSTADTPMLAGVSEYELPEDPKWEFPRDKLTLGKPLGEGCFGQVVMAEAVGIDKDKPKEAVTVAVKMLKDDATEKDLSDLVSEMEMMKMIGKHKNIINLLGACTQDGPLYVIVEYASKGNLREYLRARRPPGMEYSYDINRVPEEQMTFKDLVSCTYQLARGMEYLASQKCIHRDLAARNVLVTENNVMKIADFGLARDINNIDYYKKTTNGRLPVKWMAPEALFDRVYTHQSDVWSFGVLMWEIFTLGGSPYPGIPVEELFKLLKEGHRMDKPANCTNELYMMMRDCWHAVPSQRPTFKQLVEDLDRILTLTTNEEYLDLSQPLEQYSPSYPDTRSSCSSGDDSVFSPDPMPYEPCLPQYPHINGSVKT
FGFR1, sequence (P11362 22-822): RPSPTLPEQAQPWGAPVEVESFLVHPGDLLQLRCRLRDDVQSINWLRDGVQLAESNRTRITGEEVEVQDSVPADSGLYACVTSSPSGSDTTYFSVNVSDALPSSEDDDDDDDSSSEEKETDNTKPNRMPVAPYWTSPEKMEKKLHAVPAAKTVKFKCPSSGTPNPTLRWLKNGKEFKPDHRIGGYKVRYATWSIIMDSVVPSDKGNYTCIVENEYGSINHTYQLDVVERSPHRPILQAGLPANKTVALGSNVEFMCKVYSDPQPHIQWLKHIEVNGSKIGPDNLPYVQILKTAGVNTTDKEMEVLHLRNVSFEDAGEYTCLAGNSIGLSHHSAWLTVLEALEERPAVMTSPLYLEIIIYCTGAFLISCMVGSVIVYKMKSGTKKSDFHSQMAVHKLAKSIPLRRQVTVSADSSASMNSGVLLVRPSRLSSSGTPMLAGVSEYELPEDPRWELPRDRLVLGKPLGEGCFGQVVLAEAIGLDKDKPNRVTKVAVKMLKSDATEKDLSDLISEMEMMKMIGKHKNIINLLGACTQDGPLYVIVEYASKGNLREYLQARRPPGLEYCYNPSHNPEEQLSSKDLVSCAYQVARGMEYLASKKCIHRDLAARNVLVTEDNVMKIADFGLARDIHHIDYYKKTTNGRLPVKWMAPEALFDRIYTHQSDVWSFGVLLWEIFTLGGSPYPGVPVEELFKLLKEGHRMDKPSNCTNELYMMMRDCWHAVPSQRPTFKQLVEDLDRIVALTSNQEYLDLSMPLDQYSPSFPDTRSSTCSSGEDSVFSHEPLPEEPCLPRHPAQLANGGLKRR
FGFR3, sequence (P22607 23-806): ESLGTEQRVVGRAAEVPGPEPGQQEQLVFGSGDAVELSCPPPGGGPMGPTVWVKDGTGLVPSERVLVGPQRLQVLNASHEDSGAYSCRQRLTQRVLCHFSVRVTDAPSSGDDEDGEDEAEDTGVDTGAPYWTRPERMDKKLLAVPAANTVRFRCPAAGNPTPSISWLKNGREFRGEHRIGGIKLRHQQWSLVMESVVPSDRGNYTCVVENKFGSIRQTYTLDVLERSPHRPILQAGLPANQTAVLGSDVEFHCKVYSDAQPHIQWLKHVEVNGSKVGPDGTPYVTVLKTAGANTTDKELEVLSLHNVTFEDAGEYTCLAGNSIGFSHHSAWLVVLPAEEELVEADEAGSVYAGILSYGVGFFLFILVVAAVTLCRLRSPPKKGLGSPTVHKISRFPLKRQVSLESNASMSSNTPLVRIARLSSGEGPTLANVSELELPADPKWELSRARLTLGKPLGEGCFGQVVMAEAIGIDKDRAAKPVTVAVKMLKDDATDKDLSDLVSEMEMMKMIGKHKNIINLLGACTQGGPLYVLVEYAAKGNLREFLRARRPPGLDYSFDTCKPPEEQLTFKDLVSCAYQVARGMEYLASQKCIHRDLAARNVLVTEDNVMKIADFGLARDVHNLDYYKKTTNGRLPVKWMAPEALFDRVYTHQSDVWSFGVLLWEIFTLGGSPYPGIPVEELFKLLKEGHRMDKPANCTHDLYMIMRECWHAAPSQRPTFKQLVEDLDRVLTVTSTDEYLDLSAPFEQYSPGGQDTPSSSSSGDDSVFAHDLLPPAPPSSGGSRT
FGFR3 (V555M), sequence (P22607 23-806 V555M): as the sequence (P22607 23-806) above, with V533M counted along it

With `COc1cc(-c2n[nH]c3ccc(O[C@H](C)c4c(C)cnnc4C)cc23)cnc1N1CCN2C(=O)NCC2C1` (stereo partly drawn) [Example 328, 7-(5-(5-((R)-1-(3,5-dimethylpyridazin-4-yl)ethoxy)-1H-indazol-3-yl)-3-methoxypyridin-2-yl)hexahydroimidazo[1,5-a]pyrazin-3(2H)-one], the Kd was in the range of 100 to 300 nM in experiment [1]; 100 to 300 nM in experiment [2]; 20 to 100 nM in experiment [3]; 1 to 20 nM in experiment [4]; 100 to 300 nM in experiment [5].
Regarding `C[C@@H](Oc1ccc2[nH]nc(-c3cnc(N4CC5(CN(CC(F)(F)F)C5)C4)c(C#N)c3)c2c1)c1c(Cl)cncc1Cl` [Example 329, (R)-5-(5-(1-(3,5-dichloropyridin-4-yl)ethoxy)-1H-indazol-3-yl)-2-(6-(2,2,2-trifluoroethyl)-2,6-diazaspiro[3.3]heptan-2-yl)nicotinonitrile], the dissociation constant Kd was 100 to 300 nM in experiment [1]; 20 to 100 nM in experiment [2]; 1 to 20 nM in experiment [3]; 1 to 20 nM in experiment [4]; more than 300 nM in experiment [5].
Consider `C[C@@H](Oc1ccc2[nH]nc(-c3cnc(N4CC5(CN(CC(F)F)C5)C4)c(C#N)c3)c2c1)c1c(Cl)cncc1Cl` [Example 330, (R)-5-(5-(1-(3,5-dichloropyridin-4-yl)ethoxy)-1H-indazol-3-yl)-2-(6-(2,2-difluoroethyl)-2,6-diazaspiro[3.3]heptan-2-yl)nicotinonitrile], for which the Kd was 100 to 300 nM in experiment [1]; 20 to 100 nM in experiment [2]; 1 to 20 nM in experiment [3]; 1 to 20 nM in experiment [4]; 100 to 300 nM in experiment [5].
For `C[C@@H](Oc1ccc2[nH]nc(-c3cnc(N4CC5C(O)C5C4)c(C#N)c3)c2c1)c1c(Cl)cncc1Cl` (stereo partly drawn) [Example 331, 5-(5-((R)-1-(3,5-dichloropyridin-4-yl)ethoxy)-1H-indazol-3-yl)-2-(6-hydroxy-3-azabicyclo[3.1.0]hexan-3-yl)nicotinonitrile], the Kd fell in the range of 100 to 300 nM in experiment [1]; 1 to 20 nM in experiment [2]; 1 to 20 nM in experiment [3]; 1 to 20 nM in experiment [4]; 100 to 300 nM in experiment [5].
In the case of `C[C@@H](Oc1ccc2[nH]nc(-c3cnc(N4CCC[C@@H]4CO)c(C#N)c3)c2c1)c1c(Cl)cncc1Cl` [Example 332, 5-(5-((R)-1-(3,5-dichloropyridin-4-yl)ethoxy)-1H-indazol-3-yl)-2-((R)-2-(hydroxymethyl)pyrrolidin-1-yl)nicotinonitrile], the equilibrium dissociation constant (Kd) was 20 to 100 nM in experiment [1]; 1 to 20 nM in experiment [2]; 1 to 20 nM in experiment [3]; 1 to 20 nM in experiment [4]; 20 to 100 nM in experiment [5].
For `COc1cc2[nH]nc(-c3cnc(N4CCCC4)c(C#N)c3)c2cc1O[C@H](C)c1c(Cl)cncc1Cl` [Example 333, 5-[5-[(1R)-1-(3,5-dichloro-4-pyridyl)ethoxy]-6-methoxy-1H-indazol-3-yl]-2-pyrrolidin-1-yl-pyridine-3-carbonitrile], the equilibrium dissociation constant (Kd) lay in the range of 100 to 300 nM in experiment [1]; 20 to 100 nM in experiment [2]; 1 to 20 nM in experiment [3]; 1 to 20 nM in experiment [4]; 100 to 300 nM in experiment [5].
In the case of `C[C@@H](Oc1ccc2[nH]nc(-c3cnc(N4CCC[C@H]4CO)c(C#N)c3)c2c1)c1c(Cl)cncc1Cl` [Example 334, 5-(5-((R)-1-(3,5-dichloropyridin-4-yl)ethoxy)-1H-indazol-3-yl)-2-((S)-2-(hydroxymethyl)pyrrolidin-1-yl)nicotinonitrile], the dissociation constant Kd in experiment [1] was in the range of 20 to 100 nM; in experiment [2], 1 to 20 nM; in experiment [3] it was 1 to 20 nM; in experiment [4], 1 to 20 nM; in experiment [5], 20 to 100 nM.
As to `Cc1cnnc(C)c1[C@@H](C)Oc1ccc2[nH]nc(-c3cnc(N4CCC[C@@H]4CO)c(C#N)c3)c2c1` [Example 335, 5-(5-((R)-1-(3,5-dimethylpyridazin-4-yl)ethoxy)-1H-indazol-3-yl)-2-((R)-2-(hydroxymethyl)pyrrolidin-1-yl)nicotinonitrile], the Kd in experiment [1] fell in the range of 1 to 20 nM; in experiment [2], 1 to 20 nM; in experiment [3], 1 to 20 nM; in experiment [4], 1 to 20 nM; in experiment [5], 20 to 100 nM.
On to `Cc1cnnc(C)c1[C@@H](C)Oc1ccc2[nH]nc(-c3cnc(N4CCC[C@H]4CO)c(C#N)c3)c2c1` [Example 336, 5-(5-((R)-1-(3,5-dimethylpyridazin-4-yl)ethoxy)-1H-indazol-3-yl)-2-((S)-2-(hydroxymethyl)pyrrolidin-1-yl)nicotinonitrile], for which the Kd in experiment [1] is 20 to 100 nM; in experiment [2], 20 to 100 nM; in experiment [3], 1 to 20 nM; in experiment [4] it was 1 to 20 nM; in experiment [5], 20 to 100 nM.
On to `C[C@@H](Oc1ccc2[nH]nc(-c3cnc(N4CC5(C4)CN(S(C)(=O)=O)C5)c(C#N)c3)c2c1)c1c(Cl)cncc1Cl` [Example 337, (R)-5-(5-(1-(3,5-dichloropyridin-4-yl)ethoxy)-1H-indazol-3-yl)-2-(6-(methylsulfonyl)-2,6-diazaspiro[3.3]heptan-2-yl)nicotinonitrile], for which the Kd in experiment [1] lay within 20 to 100 nM; in experiment [2] it was 20 to 100 nM; in experiment [3] it was 1 to 20 nM; in experiment [4], 1 to 20 nM; in experiment [5], 100 to 300 nM.
`C[C@@H](Oc1ccc2[nH]nc(-c3cnc(N4CC5(CCCN(S(C)(=O)=O)C5)C4)c(C#N)c3)c2c1)c1c(Cl)cncc1Cl` [Example 338, (R)-5-(5-(1-(3,5-dichloropyridin-4-yl)ethoxy)-1H-indazol-3-yl)-2-(6-(methylsulfonyl)-2,6-diazaspiro[3.5]nonan-2-yl)nicotinonitrile]: the Kd is 100 to 300 nM in experiment [1]; 20 to 100 nM in experiment [2]; 1 to 20 nM in experiment [3]; 1 to 20 nM in experiment [4]; more than 300 nM in experiment [5].
For the molecule `COc1cc2[nH]nc(-c3cnc(N4CC5(CCS(=O)(=O)C5)C4)c(C#N)c3)c2cc1O[C@H](C)c1c(Cl)cncc1Cl` [Example 339, (R)-5-(5-(1-(3,5-dichloropyridin-4-yl)ethoxy)-6-methoxy-1H-indazol-3-yl)-2-(6,6-dioxido-6-thia-2-azaspiro[3.4]octan-2-yl)nicotinonitrile], the Kd in experiment [1], in experiment [2], in experiment [3], in experiment [4] and in experiment [5] was 1 to 20 nM throughout.
For `C[C@@H](Oc1ccc2[nH]nc(-c3cnc(N4CC5(CCCS(=O)(=O)C5)C4)c(C#N)c3)c2c1)c1c(Cl)cncc1Cl` [Example 340, (R)-5-(5-(1-(3,5-dichloropyridin-4-yl)ethoxy)-1H-indazol-3-yl)-2-(6,6-dioxido-6-thia-2-azaspiro[3.5]nonan-2-yl)nicotinonitrile], the Kd in experiment [1] lay in the range of 100 to 300 nM; in experiment [2], 1 to 20 nM; in experiment [3] it was 100 to 300 nM; in experiment [4] it was 1 to 20 nM; in experiment [5], 100 to 300 nM.
On to `COc1cc2[nH]nc(-c3cnc(N4CC5(C4)CN(S(C)(=O)=O)C5)c(C#N)c3)c2cc1O[C@H](C)c1c(Cl)cnc(C)c1Cl` [Example 341, 5-[5-[(1R)-1-(3,5-dichloro-2-methyl-4-pyridyl)ethoxy]-6-methoxy-1H-indazol-3-yl]-2-(2-methylsulfonyl-2,6-diazaspiro[3.3]heptan-6-yl)pyridine-3-carbonitrile], for which the dissociation constant (Kd) in experiment [1] lay within 20 to 100 nM; in experiment [2], 1 to 20 nM; in experiment [3], 1 to 20 nM; in experiment [4], 1 to 20 nM; in experiment [5], 20 to 100 nM.
Take `COc1cc2[nH]nc(-c3cnc(N4CC5(C4)CN(S(C)(=O)=O)C5)c(C#N)c3)c2cc1O[C@H](C)c1c(Cl)cncc1Cl` [Example 342, 5-[5-[(1R)-1-(3,5-dichloro-4-pyridyl)ethoxy]-6-methoxy-1H-indazol-3-yl]-2-(2-methylsulfonyl-2,6-diazaspiro[3.3]heptan-6-yl)pyridine-3-carbonitrile]: the Kd in experiment [1] lay in the range of 20 to 100 nM; in experiment [2] it was 1 to 20 nM; in experiment [3] it was 1 to 20 nM; in experiment [4] it was 1 to 20 nM; in experiment [5], 1 to 20 nM.
Turning to `C[C@@H](Oc1ccc2[nH]nc(-c3cnc(N4CC5(CCS(=O)(=O)C5)C4)c(C#N)c3)c2c1)c1c(Cl)cncc1Cl` [Example 343, (R)-5-(5-(1-(3,5-dichloropyridin-4-yl)ethoxy)-1H-indazol-3-yl)-2-(6,6-dioxido-6-thia-2-azaspiro[3.4]octan-2-yl)nicotinonitrile], the dissociation constant Kd in experiment [1] was in the range of 20 to 100 nM; in experiment [2], 1 to 20 nM; in experiment [3] it was 1 to 20 nM; in experiment [4], 1 to 20 nM; in experiment [5], 20 to 100 nM.
On to `COc1cc(-c2n[nH]c3ccc(O[C@H](C)c4c(Cl)cncc4Cl)cc23)cnc1N1CC2(C1)CN(S(C)(=O)=O)C2` [Example 344, (R)-5-(1-(3,5-dichloropyridin-4-yl)ethoxy)-3-(5-methoxy-6-(6-(methylsulfonyl)-2,6-diazaspiro[3.3]heptan-2-yl)pyridin-3-yl)-1H-indazole], for which the Kd in experiment [1] was more than 300 nM; in experiment [2], 100 to 300 nM; in experiment [3], 20 to 100 nM; in experiment [4], 1 to 20 nM; in experiment [5] it was more than 300 nM.
Regarding `C[C@@H](Oc1ccc2[nH]nc(-c3cnc(N4CC(C(F)F)C4)c(C#N)c3)c2c1)c1c(Cl)cncc1Cl` [Example 345, (R)-5-(5-(1-(3,5-dichloropyridin-4-yl)ethoxy)-1H-indazol-3-yl)-2-(3-(difluoromethyl)azetidin-1-yl)nicotinonitrile], the Kd in experiment [1] is more than 300 nM; in experiment [2], 20 to 100 nM; in experiment [3] it was 20 to 100 nM; in experiment [4], 1 to 20 nM; in experiment [5] it was more than 300 nM.
